Results on nine compounds are retold here after patent US20240342292A1, “Compounds for the Degradation of EGFR Kinase” (BeiGene Switzerland GmbH, priority 2021, published 2024).

Experiment [1] relates to Del19/T790M/C797S EGFR. The experiment is described as follows: EGFR degradation HTRF assay in H1975-clone #28 (DTC) cells. The format is cell-based. To be noted: H1975 # 28 DTC (Del19/T790M/C797S), 16h treatment; for DC50: HTRF; for Dmax (%): maximum percentage of degradation. The text has this: (§1) H1975-clone #28(Del19/T790M/C797S, or abbr: DTC), H1975-clone #23(Del19/C797S, or abbr: DC), H1975-clone #25(L858R/T790M/C797S, or abbr: LTC) and H1975-clone #8 (L858R/C797S, or abbr: LC). EGFR-Del19:T790M/C797S, EGFR-Del19/C797S, EGFR-L858R/T790M/C797S and EGFR-L858R/C797S were stably expressed in H1975 cell lines by lentivirus-mediated over-expression, respectively. The EGFR over-expressed cells then underwent knockout, in which the EGFR targeting sgRNA was designed to only target the endogenous EGFR copies and preserve the exogenous EGFR copies. Followed by the knockout, the edited H1975 cells were seeded in 96 well plates at the concentration of […], cultured for about 2 weeks to allow single clones formation. The formed clones were screened by DNA sequencing and whole exon sequencing analysis for the desired edition. H1975-clone #28, H1975-clone #23, H1975-clone #25 and H1975-clone #8 were finally confirmed as homozygous Del19/T790M/C797S EGFR, Dell9/C797S EGFR, L858R/T790M/C797S EGFR and L858R/C797S EGFR clones, respectively.
(§2) H1975-#25, H1975-#28, H1975-#23 and H1975-#8 cells are treated with compounds diluted in 0.2% DMSO cell culture medium on day 2, incubate for 16h, 37° C., 5% CO2. the final concentration of compounds in all assay is start with 10 uM, 5-fold dilution, total 8 doses were included.
(§3) After 16h treatment, add HTRF lysis buffer to each well; seal the plate and incubate 1 hour at room temperature on a plate shaker; Once the cells are lysed, 16 μL of cell lysate are transferred to a PE 384-well HTRF detection plate; 4 μL of pre-mixed HTRF antibodies are added to each well; Cover the plate with a plate sealer, spin 1000 rpm for 1 min, Incubate overnight at room temperature; Read on BMG PheraStar with HTRF protocol (337 nm-665 nm-620 nm).
(§4) The IC50 (DC50) value of a compound can be obtained by fitting the following equation
(§5) Y=Bottom+(TOP−Bottom)/(1+((IC50/X)^hillslope))
(§6) Wherein, X and Y are known values, and IC50, Hillslope, Top and Bottom are the parameters obtained by fitting with software. Y is the inhibition percentage (calculated from the equation), X is the concentration of the compound: IC50 is the concentration of the compound when the 50% inhibition is reached. The smaller the IC50 value is, the stronger the inhibitory ability of the compound is. Vice versa, the higher the IC50 value is, the weaker the ability the inhibitory ability of the compound is: Hillslope represents the slope of the fitted curve, generally around 1*; Bottom represents the minimum value of the curve obtained by data fitting, which is generally 0%±20%; Top represents the maximum value of the curve obtained by data fitting, which is generally 100%±20%. The experimental data were fitted by calculating and analyzing with Dotmatics data analysis software.
For orientation: TR-FRET usually uses a lanthanide donor and a delayed reading to cut background.

The target of experiment [2] is T1, L858R/T790M/C797S EGFR (Homo sapiens, UniProt P00533, C797S/L858R/T790M).
T1 construct: expressed in transfected cells; host or cells: H1975 clone #25 (lentiviral over-expression, endogenous EGFR knocked out by sgRNA)
T1 sequence (P00533 25-1210 T790M/C797S/L858R): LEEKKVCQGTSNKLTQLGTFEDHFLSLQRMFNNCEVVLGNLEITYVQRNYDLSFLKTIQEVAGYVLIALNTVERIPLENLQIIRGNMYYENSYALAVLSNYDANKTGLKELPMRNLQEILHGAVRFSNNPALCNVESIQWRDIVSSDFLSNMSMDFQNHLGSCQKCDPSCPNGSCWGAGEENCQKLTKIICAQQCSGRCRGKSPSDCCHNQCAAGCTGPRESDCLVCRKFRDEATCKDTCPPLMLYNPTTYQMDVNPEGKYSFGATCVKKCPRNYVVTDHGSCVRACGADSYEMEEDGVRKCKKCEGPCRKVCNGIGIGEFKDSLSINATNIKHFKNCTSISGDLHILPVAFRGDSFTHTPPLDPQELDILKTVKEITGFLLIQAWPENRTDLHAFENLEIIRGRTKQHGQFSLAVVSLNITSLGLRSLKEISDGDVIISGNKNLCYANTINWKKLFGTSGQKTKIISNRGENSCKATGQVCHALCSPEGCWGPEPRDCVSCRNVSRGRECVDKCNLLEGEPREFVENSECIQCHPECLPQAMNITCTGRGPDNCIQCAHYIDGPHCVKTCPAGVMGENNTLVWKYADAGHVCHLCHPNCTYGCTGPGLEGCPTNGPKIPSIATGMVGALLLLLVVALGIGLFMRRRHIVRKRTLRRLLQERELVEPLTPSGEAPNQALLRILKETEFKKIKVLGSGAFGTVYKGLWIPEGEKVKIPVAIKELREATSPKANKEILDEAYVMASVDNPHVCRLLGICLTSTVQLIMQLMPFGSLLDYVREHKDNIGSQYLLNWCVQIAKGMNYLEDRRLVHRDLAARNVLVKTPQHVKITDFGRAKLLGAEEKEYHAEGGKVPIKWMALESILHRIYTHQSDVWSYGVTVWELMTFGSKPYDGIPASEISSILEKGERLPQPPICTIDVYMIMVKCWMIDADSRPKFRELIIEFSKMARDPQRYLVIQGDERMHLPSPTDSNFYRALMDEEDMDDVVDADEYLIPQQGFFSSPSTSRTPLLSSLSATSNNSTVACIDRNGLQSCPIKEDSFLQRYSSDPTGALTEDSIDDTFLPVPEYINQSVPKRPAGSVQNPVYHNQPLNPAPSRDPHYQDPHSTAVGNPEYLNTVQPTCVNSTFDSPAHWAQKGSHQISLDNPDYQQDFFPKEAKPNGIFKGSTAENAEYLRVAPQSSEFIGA
The experiment is described as follows: EGFR degradation HTRF assay in H1975-clone #25 (LTC) cells. In kind it is cell-based. Conditions: 16h treatment; for DC50: H1975 # 25-LTC (L858R/T790M/C797S), HTRF; for Dmax: NCI-H1975, H1975 # 25-LTC (L858R/T790M/C797S), maximum percentage of degradation.
Description: as §1, §2, §3, §4, §5, §6

Regarding `Cc1cc2cc(n1)-c1cnn(C)c1OCCC[C@@H](C)CN1/C(=N/C2=O)Nc2ccc(OC3CCN(C(=O)C4CN(c5cc(F)c([C@H]6CCC(=O)NC6=O)c(F)c5)C4)CC3)cc21` [Example 156, (R)-3-(2,6-difluoro-4-(3-(4-(((R,E)-1^1,2^6,7-trimethyl-3-oxo-5^2,5^3-dihydro-1^1H,5^1H-11-oxa-4-aza-5(2,1)-benzo[d]imidazola-2(2,4)-pyridina-1(4,5)-pyrazolacycloundecaphane-5^6-yl)oxy)piperidine-1-carbonyl)azetidin-1-yl)phenyl)piperidine-2,6-dione], in experiment [1], it took 1.2 nM to reach half-maximal degradation (DC50) and the “Dmax (%)” value stood at 72.74%. Moreover, in experiment [2], the DC50 came out at 0.634 nM and the Dmax stood at 86.9%.
For `Cc1cc2cc(n1)-c1cnn(C)c1OCC[C@H]1C[C@@H]1CN1/C(=N/C2=O)Nc2ccc(N3CCN(CC4CN(c5cc(F)c([C@H]6CCC(=O)NC6=O)c(F)c5)C4)CC3)cc21` [Example 461, (R)-3-(4-(3-((4-((7^1S,7^2R,E)-1^1,2^6-dimethyl-3-oxo-5^2,5^3-dihydro-1^1H,5^1H-10-oxa-4-aza-5(2,1)-benzo[d]imidazola-2(2,4)-pyridina-1(4,5)-pyrazola-7(1,2)-cyclopropanacyclodecaphane-5^6-yl)piperazin-1-yl)methyl)azetidin-1-yl)-2,6-difluorophenyl)piperidine-2,6-dione], in experiment [1], half-maximal degradation (DC50) was put at 0.702 nM and the “Dmax (%)” value is listed as 84.7%. Also, in experiment [2], the DC50 worked out at 1.64 nM and the greatest degradation seen (Dmax) stood at 90.6%.
For the compound `Cc1cc2cc(n1)-c1cnn(C)c1OCCC[C@@H](C)CN1/C(=N/C2=O)Nc2ccc(CC3CCN(C(=O)C4CN(c5cc(F)c([C@H]6CCC(=O)NC6=O)c(F)c5)C4)CC3)cc21` [Example 159, (R)-3-(2,6-difluoro-4-(3-(4-(((R,E)-1^1,2^6,7-trimethyl-3-oxo-5^2,5^3-dihydro-1^1H,5^1H-11-oxa-4-aza-5(2,1)-benzo[d]imidazola-2(2,4)-pyridina-1(4,5)-pyrazolacycloundecaphane-5^6-yl)methyl)piperidine-1-carbonyl)azetidin-1-yl)phenyl)piperidine-2,6-dione], in experiment [1], it took 1.77 nM to reach half-maximal degradation (DC50) and the “Dmax (%)” value is on record as 79.77%. In experiment [2], this compound returned a DC50 of 1.48 nM and a Dmax of 79.9%.
On the same counts, the results for `Cc1cc2cc(n1)-c1cnn(C)c1OCCC[C@@H](C)CN1/C(=N/C2=O)Nc2ccc(C3CCN(C(=O)[C@H]4CN(c5cc(F)c([C@H]6CCC(=O)NC6=O)c(F)c5)CC4(C)C)CC3)cc21` [Example 327, (R)-3-(4-((R)-3,3-dimethyl-4-(4-((R,E)-1^1,2^6,7-trimethyl-3-oxo-5^2,53-dihydro-1^1H,5^1H-11-oxa-4-aza-5(2,1)-benzo[d]imidazola-2(2,4)-pyridina-1(4,5)-pyrazolacycloundecaphane-5^6-yl)piperidine-1-carbonyl)pyrrolidin-1-yl)-2,6-difluorophenyl)piperidine-2,6-dione] are 1.09 nM, 74.51%, 3.17 nM and 83.7%.
The matching figures for `Cc1cc2cc(n1)-c1cnn(C)c1OCCC[C@@H](C)CN1/C(=N/C2=O)Nc2ccc(CN3CC4CCC(C3)N4C(=O)[C@@H]3CCN(c4cc(F)c([C@H]5CCC(=O)NC5=O)c(F)c4)C3)cc21` [Example 83, (3R)-3-(2,6-difluoro-4-((3R)-3-(3-(((R,E)-1^1,2^6,7-trimethyl-3-oxo-5^2,5^3-dihydro-1^1H,5^1H-11-oxa-4-aza-5(2,1)-benzo[d]imidazola-2(2,4)-pyridina-1(4,5)-pyrazolacycloundecaphane-5^6-yl)methyl)-3,8-diazabicyclo[3.2.1]octane-8-carbonyl)pyrrolidin-1-yl)phenyl)piperidine-2,6-dione]: 2 nM, 73.0%, 2 nM and 82.5%.
On the same counts, the results for `Cc1cc2cc(n1)-c1cnn(C)c1OCCC[C@@H](C)CN1/C(=N/C2=O)Nc2ccc(CN3CCC4(CC3)CCN(C(=O)C3CN(c5cc(F)c([C@H]6CCC(=O)NC6=O)c(F)c5)C3)CC4)cc21` [Example 12, (R)-3-(2,6-difluoro-4-(3-(9-(((R,E)-1^1,2^6,7-trimethyl-3-oxo-5^2,53-dihydro-1^1H,5^1H-11-oxa-4-aza-5(2,1)-benzo[d]imidazola-2(2,4)-pyridina-1(4,5)-pyrazolacycloundecaphane-5^6-yl)methyl)-3,9-diazaspiro[5.5]undecane-3-carbonyl)azetidin-1-yl)phenyl)piperidine-2,6-dione] are 0.5 nM, 86.7%, 0.6 nM and 94.3%.
`COC[C@@H]1CN(C2CCN(c3cc(F)c([C@H]4CCC(=O)NC4=O)c(F)c3)CC2)CCN1c1ccc2c(c1)N1C[C@H](C)CCCOc3c(cnn3C)-c3cc(cc(C)n3)C(=O)/N=C/1N2` [Example 386, (R)-3-(2,6-difluoro-4-(4-((S)-3-(methoxymethyl)-4-((R,E)-1^1,2^6,7-trimethyl-3-oxo-5^2,5^3-dihydro-1^1H,5^1H-11-oxa-4-aza-5(2,1)-benzo[d]imidazola-2(2,4)-pyridina-1(4,5)-pyrazolacycloundecaphane-5-yl)piperazin-1-yl)piperidin-1-yl)phenyl)piperidine-2,6-dione]: in experiment [1], the DC50 was 2.01 nM and the “Dmax (%)” value came out at 72.30%. In addition, in experiment [2], it took 2.7 nM to reach half-maximal degradation (DC50) and the Dmax was found to be 86.6%.
Consider `Cc1cc2cc(n1)-c1cnn(C)c1OCCC[C@@H](C)CN1/C(=N/C2=O)Nc2ccc(C(=O)N(CCN3CCC(c4cc(F)c([C@H]5CCC(=O)NC5=O)c(F)c4)CC3)C(C)C)cc21` [Example 283, (R,E)-N-(2-(4-(4-((R)-2,6-dioxopiperidin-3-yl)-3,5-difluorophenyl)piperidin-1-yl)ethyl)-N-isopropyl-1^1,2^6,7-trimethyl-3-oxo-5^2,5^3-dihydro-1^1H,5^1H-11-oxa-4-aza-5(2,1)-benzo[d]imidazola-2(2,4)-pyridina-1(4,5)-pyrazolacycloundecaphane-5^6-carboxamide], for which, in experiment [1], the DC50 is 0.617 nM and the “Dmax (%)” value is 72.52%. In experiment [2], this compound displayed a DC50 of 0.494 nM and a Dmax of 80.2%.
On to `COC[C@H]1CN(C(=O)C2CCN(c3ccc4c(c3)N3C[C@H](C)CCCOc5c(cnn5C)-c5cc(cc(C)n5)C(=O)/N=C/3N4)CC2)CCN1c1cc(F)c([C@H]2CCC(=O)NC2=O)c(F)c1` [Example 363, (R)-3-(2,6-difluoro-4-((R)-2-(methoxymethyl)-4-(1-((R,E)-1^1,2^6,7-trimethyl-3-oxo-5^2,5^3-dihydro-1^1H,5^1H-11-oxa-4-aza-5(2,1)-benzo[d]imidazola-2(2,4)-pyridina-1(4,5)-pyrazolacycloundecaphane-5^6-yl)piperidine-4-carbonyl)piperazin-1-yl)phenyl)piperidine-2,6-Dione], for which, in experiment [1], the DC50 was 0.614 nM and the “Dmax (%)” value came to 78.54%. For the same compound, in experiment [2], the 50% degradation concentration (DC50) was 0.643 nM and the Dmax is 87.5%.

A word on the DC50: it is the concentration giving 50% degradation. Read a high DC50 as a less potent degrader. A word on the Dmax: it is the largest share of the target that was removed. Read a high Dmax as a fuller loss of target.
